# According to patent publication US11766425B2, “Antibiotic combination therapies” (BIOVERSYS AG, priority 2019, dated 2023):
# Like-named read-outs stand apart in the source and are kept apart here. Bridge positions count the residues as written; N and C are the ends. Square brackets hold non-standard residues; d marks the D form. Peptide text beside a SMILES is read from it. Dab = NCC[C@H](N)C(=O)O
# Tests used:
# Type in all cases: cell-based, Acinetobacter baumannii
# A. baumannii 401046-18 = assay: broth microdilution checkerboard MIC/synergy; details: strain 401046-18; for MICs alone: antibiotic alone
# Experimental: (§1) Checkerboards were performed according to the CLSI parameters used for microbroth dilution MIC5. CA-MHB, iron-depleted CA-MHB (ID-CA-MHB) or RPMI supplemented with 10% FCS medium were used as specified and ID-CA-MHB was prepared according to CLSI guidelines. […] FICI is calculated as follows: […]
# A. baumannii 401255-18 = assay: broth microdilution checkerboard MIC/synergy; details: strain 401255-18; for MICs alone: antibiotic alone
# Experimental: as §1
# A. baumannii 402292-17 = assay: broth microdilution checkerboard MIC/synergy; details: strain 402292-17; for MICs alone: antibiotic alone
# Experimental: as §1
# A. baumannii 402608-17 = assay: broth microdilution checkerboard MIC/synergy; details: strain 402608-17; for MICs alone: antibiotic alone
# Experimental: as §1
# A. baumannii ACC00535 = assay: broth microdilution checkerboard MIC/synergy; details: strain ACC00535; rifabutin/SPR741 in combination
# Experimental: as §1
# A. baumannii HUMC1 = assay: broth microdilution checkerboard MIC/synergy; details: strain HUMC1; for MICs alone: antibiotic alone
# Experimental: as §1
# A. baumannii IHMA1013816 = assay: broth microdilution checkerboard MIC/synergy; details: strain IHMA1013816; for MICs alone: antibiotic alone
# Experimental: as §1
# A. baumannii IHMA690517 = assay: broth microdilution checkerboard MIC/synergy; details: strain IHMA690517; for MICs alone: antibiotic alone
# Experimental: as §1
# A. baumannii IHMA863866 = assay: broth microdilution checkerboard MIC/synergy; details: strain IHMA863866; for MICs alone: antibiotic alone
# Experimental: as §1
# A. baumannii IHMA867231 = assay: broth microdilution checkerboard MIC/synergy; details: strain IHMA867231; for MICs alone: antibiotic alone
# Experimental: as §1
# A. baumannii IHMA919656 = assay: broth microdilution checkerboard MIC/synergy; details: strain IHMA919656; for MICs alone: antibiotic alone
# Experimental: as §1
# A. baumannii UNT087-1 = assay: broth microdilution checkerboard MIC/synergy; details: strain UNT087-1; for MICs alone: antibiotic alone
# Experimental: as §1
# A. baumannii UNT091-1 = assay: broth microdilution checkerboard MIC/synergy; details: strain UNT091-1; for MICs alone: antibiotic alone
# Experimental: as §1
# A. baumannii UNT191-1 = assay: broth microdilution checkerboard MIC/synergy; details: strain UNT191-1; for MICs alone: antibiotic alone
# Experimental: as §1
# A. baumannii UNT238-1 = assay: broth microdilution checkerboard MIC/synergy; details: strain UNT238-1; for MICs alone: antibiotic alone
# Experimental: as §1
# A. baumannii UNT239-1 = assay: broth microdilution checkerboard MIC/synergy; details: strain UNT239-1; for MICs alone: antibiotic alone
# Experimental: as §1
# [1] = tested on: A. baumannii LAC-4 strain; assay: broth microdilution checkerboard MIC/synergy; details: for MICs alone: antibiotic alone
# Experimental: as §1
# The checkerboards were performed in CA-MHB or ID-CA-MHB for cefiderocol.
# [2] = tested on: panel of MDR clinical isolates of A. baumannii
# Experimental: as §1
# [3] = rifabutin/SPR741 in combination
# [4] = rifabutin/colistin checkerboard, CA-MHB
# [5] = rifampicin/colistin checkerboard
# [6] = rifampicin/colistin in combination
# [7] = rifabutin/colistin in combination, CA-MHB
# [8] = second antibiotic in combination with rifabutin, LAC-4, CA-MHB
compound,measurement,setting,value
CC(=O)N[C@H](C(=O)N[C@H](CO)C(=O)N[C@H]1CCNC(=O)[C@H]([C@@H](C)O)NC(=O)[C@H](CCN)NC(=O)[C@H](CCN)NC(=O)[C@H](CC(C)C)NC(=O)[C@@H](Cc2ccccc2)NC(=O)[C@H](CCN)NC1=O)[C@@H](C)O [SPR741] (Ac-T[dS][Dab][Dab][dF]L[Dab][Dab]T; lactam 3-C),MICs combi / in combination,A. baumannii 401046-18; [3],8 mg/L
same,MICs combi / in combination,A. baumannii 401255-18; [3],4 mg/L
same,MICs combi / in combination,A. baumannii 402292-17; [3],32 mg/L
same,MICs combi / in combination,A. baumannii 402608-17; [3],16 mg/L
same,MICs combi / in combination,A. baumannii ACC00535,4 mg/L
same,MICs combi / in combination,A. baumannii HUMC1; [3],4 mg/L
same,MICs combi / in combination,A. baumannii IHMA1013816; [3],16 mg/L
same,MICs combi / in combination,A. baumannii IHMA690517; [3],16 mg/L
same,MICs combi / in combination,A. baumannii IHMA863866; [3],16 mg/L
same,MICs combi / in combination,A. baumannii IHMA867231; [3],32 mg/L
same,MICs combi / in combination,A. baumannii IHMA919656; [3],8 mg/L
same,MICs combi / in combination,A. baumannii UNT087-1; [3],8 mg/L
same,MICs combi / in combination,A. baumannii UNT091-1; [3],2 mg/L
same,MICs combi / in combination,A. baumannii UNT191-1; [3],4 mg/L
same,MICs combi / in combination,A. baumannii UNT238-1; [3],4 mg/L
same,MICs combi / in combination,A. baumannii UNT239-1; [3],4 mg/L
same,MICs combi / in combination,"[1]; strain LAC-4, rifabutin/SPR741 in combination",4 mg/L
same,"SPR741 concentration required to achieve synergy with rifabutin, relative to colistin",[2]; higher than the one of colistin,at least 8 fold
same,strains on which synergy was observed,[2]; rifabutin with SPR741,88%
colistin,MICs alone,A. baumannii 401046-18; [4],0.5 mg/L
same,MICs alone,A. baumannii 401046-18; [5],0.25 mg/L
same,MICs combi,A. baumannii 401046-18; [6],0.06 mg/L
same,MICs alone,A. baumannii 401255-18; [4],0.25 mg/L
same,MICs alone,A. baumannii 401255-18; [5],0.25 mg/L
same,MICs combi,A. baumannii 401255-18; [7],0.06 mg/L
same,MICs combi,A. baumannii 401255-18; [6],0.06 mg/L
same,MICs alone,A. baumannii 402292-17; [4],1 mg/L
same,MICs alone,A. baumannii 402292-17; [5],0.25 mg/L
same,MICs combi,A. baumannii 402292-17; [7],0.25 mg/L
same,MICs alone,A. baumannii 402608-17; [4],1 mg/L
same,MICs alone,A. baumannii 402608-17; [5],1 mg/L
same,MICs combi,A. baumannii 402608-17; [7],0.25 mg/L
same,MICs combi,A. baumannii 402608-17; [6],0.25 mg/L
same,MICs alone,A. baumannii HUMC1; [4],0.5 mg/L
same,MICs alone,A. baumannii HUMC1; [5],0.5 mg/L
same,MICs alone,A. baumannii IHMA1013816; [4],16 mg/L
same,MICs alone,A. baumannii IHMA1013816; [5],32 mg/L
same,MICs combi,A. baumannii IHMA1013816; [7],<0.5 mg/L
same,MICs combi,A. baumannii IHMA1013816; [6],<0.5 mg/L
same,MICs alone,A. baumannii IHMA690517; [4],16 mg/L
same,MICs alone,A. baumannii IHMA690517; [5],16 mg/L
same,MICs combi,A. baumannii IHMA690517; [7],0.5 mg/L
same,MICs combi,A. baumannii IHMA690517; [6],<0.5 mg/L
same,MICs alone,A. baumannii IHMA863866; [4],>512 mg/L
same,MICs alone,A. baumannii IHMA863866; [5],512 mg/L
same,MICs combi,A. baumannii IHMA863866; [7],1 mg/L
same,MICs combi,A. baumannii IHMA863866; [6],0.5 mg/L
same,MICs alone,A. baumannii IHMA867231; [4],32 mg/L
same,MICs alone,A. baumannii IHMA867231; [5],32 mg/L
same,MICs combi,A. baumannii IHMA867231; [7],4 mg/L
same,MICs combi,A. baumannii IHMA867231; [6],4 mg/L
same,MICs alone,A. baumannii IHMA919656; [4],512 mg/L
same,MICs alone,A. baumannii IHMA919656; [5],512 mg/L
same,MICs combi,A. baumannii IHMA919656; [7],1 mg/L
same,MICs combi,A. baumannii IHMA919656; [6],1 mg/L
same,MICs alone,A. baumannii UNT087-1; [4],1 mg/L
same,MICs alone,A. baumannii UNT087-1; [5],0.5 mg/L
same,MICs combi,A. baumannii UNT087-1; [7],0.25 mg/L
same,MICs alone,A. baumannii UNT091-1; [4],0.5 mg/L
same,MICs alone,A. baumannii UNT091-1; [5],0.5 mg/L
same,MICs alone,A. baumannii UNT191-1; [4],2 mg/L
same,MICs alone,A. baumannii UNT191-1; [5],1 mg/L
same,MICs combi,A. baumannii UNT191-1; [7],0.5 mg/L
same,MICs combi,A. baumannii UNT191-1; [6],0.25 mg/L
same,MICs alone,A. baumannii UNT238-1; [4],0.25 mg/L
same,MICs alone,A. baumannii UNT238-1; [5],0.5 mg/L
same,MICs combi,A. baumannii UNT238-1; [7],0.06 mg/L
same,MICs alone,A. baumannii UNT239-1; [4],1 mg/L
same,MICs alone,A. baumannii UNT239-1; [5],1 mg/L
same,MICs combi,A. baumannii UNT239-1; [7],0.25 mg/L
same,MICs combi,A. baumannii UNT239-1; [6],0.25 mg/L
same,FICI,[1]; [8],0.254
same,Interpretation,[1]; [8],synergy (synergy (FICI≤0.5))
same,MICs alone,"[1]; strain LAC-4, rifabutin/colistin checkerboard, CA-MHB",0.5 mg/L
same,MICs alone,"[1]; strain LAC-4, rifampicin/colistin checkerboard",0.5 mg/L
same,reduction of colistin MICs,"[2]; in combination with rifabutin, colistin resistant strains, CA-MHB",at least 16 fold
same,strains on which synergy was observed,"[2]; rifabutin with colistin, CA-MHB, 16 MDR isolates",100%
